For twelve compounds, MIC results are on record in DBAASP.

The structures appear in SMILES notation. Converted amounts (≈) assume the structure as drawn.

The MIC is the smallest concentration in the dilution series that meets the test's criterion for growth inhibition. High values mean a less susceptible organism, low ones a more susceptible organism.

Some test systems named below: Escherichia coli K-12; Klebsiella pneumoniae; Escherichia coli BL21.
Common to all, as to assay: ≥ marks a high value that may be exact or a test limit, other limits are often not marked, values filed in µg/mL are converted to µM
For test [1], the system named is Pseudomonas aeruginosa PAO1.
Test [2] has as its system Staphylococcus aureus NCTC 8325-4.
Test [3] relates to Candida albicans NCYC 1467.
Test [4] deals with Escherichia coli NCTC 10418.
The test system of test [5] is Pseudomonas aeruginosa ATCC 27853.
Test [6] deals with Staphylococcus aureus ATCC 43300.
The subject of test [7] is Staphylococcus aureus NCTC 10788.
The subject of test [8] is Staphylococcus aureus NCTC 12493.
Test [9] relates to Bacillus subtilis ATCC 6051.
In test [10] the test system is Escherichia coli NEB5alpha.
For test [11], the system named is Streptococcus pyogenes M1T1 5448.
Test [12] deals with Escherichia coli ATCC 25922.
The test system of test [13] is Staphylococcus aureus USA 300.

`CC[C@H](C)[C@H](N)C(=O)N[C@@H](CCCCN)C(=O)N[C@@H](CCCCN)C(=O)N[C@H](C(=O)N[C@H](C(=O)N[C@@H](CCCCN)C(=O)N[C@@H](CCCCN)C(=O)N[C@H](C(=O)N[C@H](C(=O)N[C@@H](CCCCN)C(=O)N[C@@H](CCCCN)C(=O)N[C@H](C(N)=O)[C@@H](C)CC)[C@@H](C)CC)[C@@H](C)CC)[C@@H](C)CC)[C@@H](C)CC` [IKKIIKKIIKKI]: the MIC in the test with Escherichia coli K-12 was 15.6 µM (≈ 22.9 µg/mL); with Klebsiella pneumoniae it was over 500 µM; in test [1], 15.6 µM (≈ 22.9 µg/mL); in [2], at least 250 µM.

`CSCC[C@H](NC(=O)[C@H](CC(=O)O)NC(=O)[C@@H](NC(=O)[C@@H](NC(=O)[C@H](C)NC(=O)[C@H](CC(N)=O)NC(=O)[C@H](CC(C)C)NC(=O)[C@@H](NC(=O)[C@H](C)NC(=O)[C@H](CCCCN)NC(=O)CNC(=O)[C@H](C)NC(=O)[C@H](C)NC(=O)[C@H](CCCCN)NC(=O)CNC(=O)[C@@H](NC(=O)[C@H](CC(N)=O)NC(=O)[C@H](CCCCN)NC(=O)[C@H](CC(C)C)NC(=O)[C@H](CC(C)C)NC(=O)[C@@H](NC(=O)[C@H](CCCCN)NC(=O)[C@H](Cc1c[nH]c2ccccc12)NC(=O)[C@H](CC(C)C)NC(=O)[C@H](C)N)[C@@H](C)O)C(C)C)C(C)C)C(C)C)[C@@H](C)O)C(=O)N[C@H](C(=O)N[C@@H](CC(N)=O)C(=O)N[C@@H](CCC(N)=O)C(N)=O)C(C)C` [ALWKTLLKNVGKAAGKAVLNAVTDMVNQ]: the MIC in test [3] came to 5.42 µM (≈ 16 µg/mL); in test [4] it was 2.71 µM (≈ 8 µg/mL); in [5], 5.42 µM (≈ 16 µg/mL); in test [6] it was 2.71 µM (≈ 8 µg/mL); in test [7] it was 2.71 µM (≈ 8 µg/mL); in test [8], 5.42 µM (≈ 16 µg/mL).

As for `CC[C@H](C)[C@H](NC(=O)[C@H](CCCCN)NC(=O)[C@H](CCCCN)NC(=O)[C@H](CC(C)C)NC(=O)[C@H](C)NC(=O)CNC(=O)[C@@H](NC(=O)[C@H](C)NC(=O)[C@H](CCCCN)NC(=O)[C@@H]1CCCN1C(=O)[C@H](CC(C)C)NC(=O)[C@H](CC(C)C)NC(=O)[C@H](CCCCN)NC(=O)[C@H](Cc1ccccc1)NC(=O)[C@H](Cc1ccccc1)NC(=O)[C@@H](N)Cc1ccccc1)[C@@H](C)CC)C(=O)O` [FFFKLLPKAIGALKKI], the results for the MIC (against Escherichia coli K-12; in [5]) were at least 128 µM and 64 µM (≈ 117 µg/mL), respectively.

Turning to `NCCCC[C@H](NC(=O)[C@H](CCC(=O)O)NC(=O)[C@H](CC(=O)O)NC(=O)[C@H](CCC(=O)O)NC(=O)[C@H](CC(=O)O)NC(=O)[C@H](CCC(=O)O)NC(=O)[C@@H](N)CC(=O)O)C(=O)N[C@@H](CCCN=C(N)N)C(=O)N[C@@H](CCC(N)=O)C(=O)N1CCC[C@H]1C(=O)N[C@@H](Cc1cnc[nH]1)C(=O)O` [DEDEDEKRQPH], the MIC was at least 500 µM in [9] and at least 1000 µM in test [10].

For `CC[C@H](C)[C@H](NC(=O)[C@H](CCC(=O)O)NC(=O)[C@H](CCCN=C(N)N)NC(=O)[C@H](CCCN=C(N)N)NC(=O)[C@H](CC(C)C)NC(=O)[C@H](Cc1ccc(O)cc1)NC(=O)[C@H](C)NC(=O)[C@H](CCCCN)NC(=O)[C@@H](NC(=O)[C@@H](NC(=O)[C@H](CCC(N)=O)NC(=O)[C@H](CCCN=C(N)N)NC(=O)CNC(=O)[C@H](C)N)[C@@H](C)O)[C@@H](C)CC)C(=O)N[C@@H](CCCN=C(N)N)C(=O)N[C@@H](CCCCN)C(=O)N[C@@H](CCCN=C(N)N)C(=O)NCC(=O)N[C@@H](CCCN=C(N)N)C(=O)N[C@@H](CCCCN)C(=O)N[C@@H](C)C(=O)N[C@H](C(=O)N[C@H](C(=O)N[C@@H](C)C(=O)N[C@@H](Cc1c[nH]c2ccccc12)C(=O)O)[C@@H](C)CC)C(C)C` [AGRQTIKAYLRREIRKRGRKAVIAW], the MIC came to 8 µM (≈ 24 µg/mL) in the test with Escherichia coli BL21, 16 µM (≈ 48 µg/mL) in [1] and 8 µM (≈ 24 µg/mL) in [11].

For `CC(C)C[C@H](NC(=O)[C@H](CCCN=C(N)N)NC(=O)[C@H](CC(N)=O)NC(=O)[C@H](CC(C)C)NC(=O)[C@@H](N)CCCCN)C(=O)N[C@@H](CCCCN)C(=O)N[C@@H](CCC(=O)O)C(=O)N[C@@H](CCCCN)C(=O)N[C@@H](CC(N)=O)C(=O)N[C@@H](CCCCN)C(=O)N[C@@H](C)C(=O)N[C@@H](CCCCN)C(=O)N[C@@H](CC(N)=O)C(=O)N[C@@H](CO)C(=O)N[C@@H](CCCCN)C(=O)N[C@@H](CCC(=O)O)C(=O)N[C@@H](CC(N)=O)C(=O)N[C@@H](CC(N)=O)C(=O)O` [KLNRLKEKNKAKNSKENN], the MIC was at least 237 µM in test [3], at least 237 µM in [4], over 237 µM in test [5] and at least 237 µM in test [7].

As for `CC[C@H](C)[C@H](NC(=O)[C@H](Cc1ccccc1)NC(=O)[C@H](C)NC(=O)[C@H](CCCCN)NC(=O)[C@H](CCCCN)NC(=O)CNC(=O)[C@H](CCCN=C(N)N)NC(=O)[C@H](CCCCN)NC(=O)[C@H](CCCN=C(N)N)NC(=O)[C@H](CC(C)C)NC(=O)[C@H](Cc1ccc(O)cc1)NC(=O)[C@H](CCC(=O)O)NC(=O)[C@H](CCCCN)NC(=O)[C@H](CC(C)C)NC(=O)[C@H](CCC(=O)O)NC(=O)[C@H](CC(C)C)NC(=O)[C@@H](NC(=O)[C@H](CC(C)C)NC(=O)[C@H](CCCCN)NC(=O)[C@H](CCC(N)=O)NC(=O)[C@H](CCCN=C(N)N)NC(=O)CNC(=O)[C@H](C)N)[C@@H](C)O)C(=O)N[C@@H](C)C(=O)N[C@@H](Cc1c[nH]c2ccccc12)C(=O)O` [AGRQKLTLELKEYLRKRGKKAFIAW], the MIC with Escherichia coli BL21 was found to be 16 µM (≈ 48.1 µg/mL); in test [1], 128 µM (≈ 385 µg/mL); in [11], 4 µM (≈ 12 µg/mL).

On to `CC(C)C[C@H](NC(=O)[C@H](CC(C)C)NC(=O)[C@H](CCC(N)=O)NC(=O)[C@H](CCC(=O)O)NC(=O)[C@H](CC(C)C)NC(=O)[C@@H](N)Cc1ccc(O)cc1)C(=O)N[C@@H](CCCN=C(N)N)C(=O)O` [YLEQLLR], for which the minimal inhibitory concentration (MIC) in [9] was at least 53.5 µM; in test [12] it was 40.1 µM (≈ 37.5 µg/mL); in test [10], at least 241 µM.

Turning to `CC[C@H](C)[C@H](NC(=O)[C@@H](N)Cc1cnc[nH]1)C(=O)N[C@@H](CCC(N)=O)C(=O)N[C@@H](CCCCN)C(=O)N[C@@H](CCC(=O)O)C(=O)N[C@@H](CC(=O)O)C(=O)N[C@H](C(=O)N1CCC[C@H]1C(=O)N[C@@H](CO)C(=O)N[C@@H](CCC(=O)O)C(=O)N[C@@H](CCCN=C(N)N)C(=O)N[C@@H](Cc1ccc(O)cc1)C(=O)N[C@@H](CC(C)C)C(=O)NCC(=O)N[C@@H](Cc1ccc(O)cc1)C(=O)N[C@@H](CC(C)C)C(=O)N[C@@H](CCC(=O)O)C(=O)N[C@@H](CCC(N)=O)C(=O)N[C@@H](CC(C)C)C(=O)N[C@@H](CC(C)C)C(=O)N[C@@H](CCCN=C(N)N)C(=O)N[C@@H](CC(C)C)C(=O)N[C@@H](CCCCN)C(=O)O)C(C)C` [HIQKEDVPSERYLGYLEQLLRLK], the MIC is at least 292 µM in test [9], 583 µM (≈ 1650 µg/mL) in test [12] and at least 292 µM in [10].

For `CC[C@H](C)[C@H](NC(=O)[C@H](Cc1cnc[nH]1)NC(=O)[C@H](CCCCN)NC(=O)[C@@H](NC(=O)[C@@H](NC(=O)[C@H](CC(=O)O)NC(=O)[C@H](Cc1ccccc1)NC(=O)[C@H](Cc1c[nH]c2ccccc12)NC(=O)CN)C(C)C)C(C)C)C(=O)N[C@@H](C)C(=O)N[C@@H](CCCCN)C(=O)N[C@@H](CCCNC(=N)N)C(=O)N[C@@H](Cc1ccccc1)C(N)=O` [GWFDVVKHIAKRF], the MIC in the test with Escherichia coli K-12 was 12.5 µM (≈ 20 µg/mL); in [13] it was at least 50 µM.

As for `CC[C@H](C)[C@H](NC(=O)[C@@H]1CCCN1C(=O)[C@H](CCSC)NC(=O)[C@H](CC(=O)O)NC(=O)[C@H](CCCN=C(N)N)NC(=O)[C@H](CCC(N)=O)NC(=O)[C@@H]1CCCN1C(=O)[C@H](Cc1ccc(O)cc1)NC(=O)[C@@H]1CCCN1C(=O)[C@@H](N)C(C)C)C(=O)N[C@@H](CCC(N)=O)C(=O)N[C@@H](C)C(=O)N[C@@H](Cc1ccccc1)C(=O)N[C@@H](CC(C)C)C(=O)O` [VPYPQRDMPIQAFL], in test [10], the minimum inhibitory concentration (MIC) is at least 493 µM.

With `CC[C@H](C)[C@H](NC(=O)[C@H](Cc1c[nH]c2ccccc12)NC(=O)[C@@H]1CCCN1C(=O)[C@H](CCCCN)NC(=O)[C@H](CCSC)NC(=O)[C@H](C)NC(=O)[C@H](CCCCN)NC(=O)[C@H](CCC(N)=O)NC(=O)[C@H](Cc1cnc[nH]1)NC(=O)[C@H](CCC(N)=O)NC(=O)[C@H](Cc1ccc(O)cc1)NC(=O)[C@@H](NC(=O)[C@@H](N)[C@@H](C)O)C(C)C)C(=O)N[C@@H](CCC(N)=O)C(=O)N1CCC[C@H]1C(=O)N[C@@H](CCCCN)C(=O)N[C@H](C(=O)N[C@@H](CCCCN)C(=O)N[C@H](C(=O)N[C@H](C(=O)N1CCC[C@H]1C(=O)N[C@@H](Cc1ccc(O)cc1)C(=O)N[C@H](C(=O)N[C@@H](CCCN=C(N)N)C(=O)N[C@@H](Cc1ccc(O)cc1)C(=O)N[C@@H](CC(C)C)C(=O)O)C(C)C)[C@@H](C)CC)C(C)C)[C@@H](C)O` [TVYQHQKAMKPWIQPKTKVIPYVRYL], the MIC was found to be 2.67 µM (≈ 8.6 µg/mL) in test [9], 171 µM (≈ 550 µg/mL) in [12] and 21.4 µM (≈ 68.8 µg/mL) in [10].
